Laboratory results as given in patent US12364764B2, “Sustained release thermosetting gels comprising sodium channel blockers and the methods of making same” (Pacira Therapeutics, Inc., priority 2019, dated 2025).

Test: Measured drug load / API content of funapide gel formulations
Assay type: physicochemical

- drug concentration that can be loaded within the thermosensitive hydrogel formulation: up to 20 mg/mL
Structure (SMILES): O=C1N(Cc2ccc(C(F)(F)F)o2)c2ccccc2[C@]12COc1cc3c(cc12)OCO3 [funapide]
